According to ChEMBL document CHEMBL3627672, “Structure-activity relationship study of syringolin A as a potential anticancer agent” (Bioorg Med Chem Lett, 2015):
pIC50, pKi: −log10 of the molar value.

Tests used:
[1] = molecular target: T1, Proteasome Macropain subunit MB1 (Homo sapiens, UniProt P28074); test: Inhibition of proteasome beta-5 (unknown origin)
T1 sequence (P28074 whole entry): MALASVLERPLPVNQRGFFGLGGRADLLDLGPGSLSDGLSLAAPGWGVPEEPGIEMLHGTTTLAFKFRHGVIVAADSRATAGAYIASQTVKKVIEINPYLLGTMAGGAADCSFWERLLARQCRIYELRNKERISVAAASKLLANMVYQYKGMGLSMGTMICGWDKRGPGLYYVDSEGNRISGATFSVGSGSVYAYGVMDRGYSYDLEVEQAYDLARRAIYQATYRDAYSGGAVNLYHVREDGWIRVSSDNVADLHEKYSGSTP

[2] = Cytotoxicity against human MM1S cells; assay type: functional, cell-based; settings: MM1.S
CCRF-CEM = test: Antiproliferative activity against human CCRF-CEM cells after 72 hrs by oxyluciferin luminescence assay
RKO = test: Antiproliferative activity against human RKO cells after 72 hrs by oxyluciferin luminescence assay
[3] = Antiproliferative activity against human RPMI8266 cells after 72 hrs by oxyluciferin luminescence assay; settings: RPMI8266, 72 h
HCT-116 = test: Antiproliferative activity against human HCT116 cells after 72 hrs by oxyluciferin luminescence assay; settings: HCT-116, 72 h
[4] = Antiproliferative activity against human TOV21G cells after 72 hrs by oxyluciferin luminescence assay
A-431 = test: Antiproliferative activity against human A431 cells after 72 hrs by oxyluciferin luminescence assay; settings: A-431, 72 h
[5] = Cytotoxicity against human RPMI8266 cells

Structure (SMILES) | pKi [1] | pIC50 [2] | pIC50 (CCRF-CEM) | pIC50 (RKO) | pIC50 [3] | pIC50 (HCT-116) | pIC50 [4] | pIC50 (A-431) | pIC50 [5]
CC(C)[C@H](NC(=O)N[C@H](C(=O)N[C@H]1/C=C/CCNC(=O)/C=C/[C@H](C(C)C)NC1=O)C(C)C)C(=O)O | 6.07 | 5.07 | – | – | – | – | – | – | –
CCCCCCCCCC(=O)N1CCC[C@]1(Cc1ccccc1)C(=O)N[C@H]1/C=C/CCNC(=O)/C=C/[C@H](C(C)C)NC1=O | – | – | < 6.00 | < 6.00 | < 6.00 | < 6.00 | < 6.00 | < 6.00 | –
CCCCCCCCCC(=O)N[C@H](CC(=O)N[C@H]1/C=C/CCNC(=O)/C=C/[C@H](C(C)C)NC1=O)Cc1ccccc1 | – | – | 6.66 | 6.61 | 6.59 | 6.36 | 6.67 | 6.72 | –
CCCCCCCCCC(=O)N[C@@H](Cc1ccccc1)C(=O)N[C@H]1/C=C/CCNC(=O)/C=C/[C@H](C(C)C)NC1=O | – | – | 8.37 | 7.93 | 8.05 | 7.90 | 7.91 | 7.85 | 8.66
CC(C)C[C@H](NC(=O)[C@H](Cc1ccccc1)NC(=O)c1cnccn1)B(O)O [BORTEZOMIB] | – | – | 7.96 | 7.68 | 7.84 | 7.57 | 7.78 | 7.55 | –
CC(C)C[C@H](NC(=O)[C@H](CCc1ccccc1)NC(=O)CN1CCOCC1)C(=O)N[C@@H](Cc1ccccc1)C(=O)N[C@@H](CC(C)C)C(=O)[C@@]1(C)CO1 [CARFILZOMIB] | – | – | 8.21 | 7.57 | 7.86 | 7.71 | 7.62 | 7.62 | –
